A short description of experiment [1]: Displacement of [3H]dexamethasone from human glucocorticoid receptor alpha.
In experiment [2] the target is T1, Glucocorticoid receptor (Homo sapiens) (UniProt P04150).
T1 sequence (whole entry): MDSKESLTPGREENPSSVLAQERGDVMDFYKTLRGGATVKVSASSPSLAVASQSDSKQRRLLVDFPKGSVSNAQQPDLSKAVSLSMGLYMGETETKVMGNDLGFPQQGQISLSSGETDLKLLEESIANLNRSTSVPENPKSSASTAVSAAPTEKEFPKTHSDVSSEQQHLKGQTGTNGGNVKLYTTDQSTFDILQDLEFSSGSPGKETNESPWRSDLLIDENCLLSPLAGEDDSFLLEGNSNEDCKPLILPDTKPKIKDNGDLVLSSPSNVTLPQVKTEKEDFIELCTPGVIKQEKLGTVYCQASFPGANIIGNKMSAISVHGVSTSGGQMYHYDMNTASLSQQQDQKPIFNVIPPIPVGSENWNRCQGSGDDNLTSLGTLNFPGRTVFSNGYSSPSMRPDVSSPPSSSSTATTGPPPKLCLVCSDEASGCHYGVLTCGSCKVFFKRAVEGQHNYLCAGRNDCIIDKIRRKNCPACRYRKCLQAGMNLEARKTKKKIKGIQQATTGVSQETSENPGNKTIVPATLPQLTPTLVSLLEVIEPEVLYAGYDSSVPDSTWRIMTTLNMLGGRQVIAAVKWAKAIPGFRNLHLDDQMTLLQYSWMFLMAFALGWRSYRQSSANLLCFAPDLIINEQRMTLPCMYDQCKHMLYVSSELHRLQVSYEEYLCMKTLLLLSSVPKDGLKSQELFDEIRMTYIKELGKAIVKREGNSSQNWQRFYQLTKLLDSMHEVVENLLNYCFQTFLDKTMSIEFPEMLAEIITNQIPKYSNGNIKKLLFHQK
Description: (§1) Activity at human glucocorticoid receptor in human A549 cells assessed as repression of human IL6. Format: cell-based.

The target of experiment [3] is T1, Glucocorticoid receptor (Homo sapiens). Description: Activity at human glucocorticoid receptor in human HepG2 cells assessed as tyrosine amino transferase activity. The experiment is classed as cell-based.
Experiment [4] addresses Glucocorticoid receptor (Mus musculus) (UniProt P06537). Description: Activity at mouse glucocorticoid receptor in C2C12 cells assessed as mouse glutamine synthetase activity.
For experiment [5], the system named is Mus musculus. Nature of the experiment: Antiinflammatory activity in mouse assessed as inhibition of LPS-induced TNFalpha at 30 mg/kg relative to prednisolone. The experiment is classed as functional.
Experiment [6] relates to Mus musculus. Nature of the experiment: Antiinflammatory activity in mouse assessed as inhibition of LPS-induced TNFalpha at 3 mg/kg. The experiment is classed as functional. Further details: scale not given: the % may be the effect or the level left.
The species named for experiment [7] is Mus musculus. Nature of the experiment: animal or person. As to conditions: read-out: Inhibition.
The target in experiment [8] is T2, Glucocorticoid receptor (Homo sapiens, UniProt P04150).
T2 sequence (P04150 whole entry): T1 sequence (whole entry)
The description is as §1. Format: cell-based.

The test system of experiment [9] is Mus musculus. Nature of the experiment: Clearance in iv dosed mouse. Format: functional, organism-based.
For experiment [10], the system named is Mus musculus. Description: Half life in iv dosed mouse. The experiment is classed as functional, organism-based.
The test system of experiment [11] is Mus musculus. Description: Normalized AUC in iv dosed mouse. Format: functional, organism-based.
The test system of experiment [12] is Mus musculus. Nature of the experiment: Oral bioavailability in mouse. The experiment is classed as functional, organism-based.

Calls of active or inactive are those of the source. No cut-off for these calls is given here.

Glucocorticoid receptor (Mus musculus), sequence (P06537 whole entry, looked up): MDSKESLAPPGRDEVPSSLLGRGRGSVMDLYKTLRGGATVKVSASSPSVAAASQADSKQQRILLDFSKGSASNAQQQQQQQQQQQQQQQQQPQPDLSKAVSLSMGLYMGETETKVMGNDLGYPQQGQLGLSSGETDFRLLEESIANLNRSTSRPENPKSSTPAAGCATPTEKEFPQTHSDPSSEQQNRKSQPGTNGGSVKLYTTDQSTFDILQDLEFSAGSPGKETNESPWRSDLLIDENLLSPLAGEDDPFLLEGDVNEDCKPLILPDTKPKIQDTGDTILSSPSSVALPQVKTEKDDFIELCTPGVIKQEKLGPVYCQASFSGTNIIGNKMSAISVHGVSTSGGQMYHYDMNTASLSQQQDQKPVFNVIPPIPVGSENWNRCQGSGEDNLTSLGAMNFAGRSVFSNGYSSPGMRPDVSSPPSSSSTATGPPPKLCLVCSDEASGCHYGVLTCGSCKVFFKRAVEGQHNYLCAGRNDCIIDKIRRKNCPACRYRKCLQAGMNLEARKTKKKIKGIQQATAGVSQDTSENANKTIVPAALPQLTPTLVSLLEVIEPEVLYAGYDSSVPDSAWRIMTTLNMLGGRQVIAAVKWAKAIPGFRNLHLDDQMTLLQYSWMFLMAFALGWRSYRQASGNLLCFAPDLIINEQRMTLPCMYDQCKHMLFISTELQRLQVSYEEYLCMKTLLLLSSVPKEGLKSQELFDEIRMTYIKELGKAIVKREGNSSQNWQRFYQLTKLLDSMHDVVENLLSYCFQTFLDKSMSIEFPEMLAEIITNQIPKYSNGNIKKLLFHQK

With `C[C@]12Cc3cnn(-c4ccc(F)cc4)c3C=C1CC[C@@H]2[C@H](O)c1cc2ccccc2s1`, in experiment [1], the IC50 (as a rule, the point on the concentration scale where inhibition reaches its midpoint) amounted to 689 nM. In addition, the outcome in [2] and in [3] was inactive.

Molecule `C[C@]12Cc3cnn(-c4ccc(F)cc4)c3C=C1CCC[C@@H]2[C@H](O)c1csc2ccccc12` had an IC50 in [1] of 1.5 nM. Also, in experiment [4], the concentration giving a half-maximal response (EC50) (commonly the concentration giving half of the maximal effect) amounted to 3 nM.

In [1], `C[C@]12Cc3cnn(-c4ccc(F)cc4)c3C=C1CC[C@@H]2[C@@H](O)c1ccc2ccccc2c1` showed an IC50 of 86 nM. Further, the outcome in experiment [4] and in [3] was inactive.

As to `C[C@]12Cc3cnn(-c4ccc(F)cc4)c3C=C1CC[C@@H]2[C@@H](O)c1csc2ccccc12`, the inhibition in vivo at 30 mg/kg in [5] amounted to 113%.

Molecule `C[C@]12Cc3cnn(-c4ccc(F)cc4)c3C=C1CCC[C@@H]2[C@@H](O)c1csc2ccccc12` had an IC50 in experiment [1] of 5.1 nM.

In turn, `C[C@]12Cc3cnn(-c4ccc(F)cc4)c3C=C1CC[C@@H]2[C@@H](O)c1cc2ccccc2s1` gave an IC50 in [1] of 69.1 nM. For the same molecule, the outcome in experiment [4] and in experiment [3] was inactive.

With `C[C@]12Cc3cnn(-c4ccc(F)cc4)c3C=C1CC[C@@H]2[C@H](O)c1ccc2ccccc2c1`, the half-maximal inhibitory concentration (IC50) in experiment [1] amounted to 198 nM. Also, the outcome in experiment [4] and in experiment [3] was inactive.

On to `C[C@]12C=CC(=O)C=C1CC[C@@H]1[C@@H]2[C@@H](O)C[C@@]2(C)[C@H]1CC[C@]2(O)C(=O)CO` [PREDNISOLONE], for which, in experiment [6], the Activity was 71%. Further, the inhibition in vivo at 3 mg/kg in experiment [7] was 100%.

As for `C[C@]12Cc3cnn(-c4ccc(F)cc4)c3C=C1CCC[C@@H]2[C@@H](O)c1ccsc1`, in experiment [1], the IC50 was 5.1 nM. Besides, the EC50 in experiment [8] turned out to be 1 nM.

Molecule `C[C@]12Cc3cnn(-c4ccc(F)cc4)c3C=C1CC[C@@H]2[C@H](O)c1csc2ccccc12` returned a CL (mL.min-1.kg-1) in [9] of 22.3. In [10], this molecule registered a T1/2 of 7.8 h. In addition, the inhibition in vivo at 30 mg/kg in experiment [5] was found to be 103%. This molecule also showed an AUC in experiment [11] of 1.7 µM·h/mg/kg. This molecule displayed a bioavailability in experiment [12] of 34%.

`C[C@]12Cc3cnn(-c4ccc(F)cc4)c3C=C1CCC[C@@H]2[C@@H](O)c1cc2ccccc2s1`: the concentration for a half-maximal effect (EC50) in experiment [4] was determined as 1210 nM.
